From ChEMBL document CHEMBL1201862, “PubChem BioAssay data set” (2004)
Calls of active or inactive are those of the source.

How the values were obtained:
[1] = target: DNA dC->dU-editing enzyme APOBEC-3A (Homo sapiens, UniProt P31941); experiment: SAR analysis of small molecule inhibitors of APOBEC3A DNA Deaminase via a fluorescence-based single-stranded DNA deaminase assay.; format: functional; settings: read-out: IC50_Mean
[2] = target: DNA dC->dU-editing enzyme APOBEC-3G (Homo sapiens, UniProt Q9HC16); experiment: inhibition of APOBEC3G ssDNA deamination – biochemical, fluorescence, single-stranded DNA substrate, SAR follow-up (AID 602136); format: functional; settings: read-out: IC50_Mean
Sequence of DNA dC->dU-editing enzyme APOBEC-3G (Q9HC16 whole entry): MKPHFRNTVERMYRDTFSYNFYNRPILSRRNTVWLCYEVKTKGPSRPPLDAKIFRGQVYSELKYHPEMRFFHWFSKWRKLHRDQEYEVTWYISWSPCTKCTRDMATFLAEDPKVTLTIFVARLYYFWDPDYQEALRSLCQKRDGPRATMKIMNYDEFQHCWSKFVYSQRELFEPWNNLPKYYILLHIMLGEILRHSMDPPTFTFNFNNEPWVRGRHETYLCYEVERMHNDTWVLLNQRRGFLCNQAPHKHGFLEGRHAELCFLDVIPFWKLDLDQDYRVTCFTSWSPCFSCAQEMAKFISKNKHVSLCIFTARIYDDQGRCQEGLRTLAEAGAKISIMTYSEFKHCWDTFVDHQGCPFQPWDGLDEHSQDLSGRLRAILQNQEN

[3] = target: Macrophage colony-stimulating factor 1 receptor (Homo sapiens, UniProt P07333); format: functional;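 note: value comes from the Navigating the Kinome screening panel, CSF1R member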
Sequence of Macrophage colony-stimulating factor 1 receptor (P07333 whole entry): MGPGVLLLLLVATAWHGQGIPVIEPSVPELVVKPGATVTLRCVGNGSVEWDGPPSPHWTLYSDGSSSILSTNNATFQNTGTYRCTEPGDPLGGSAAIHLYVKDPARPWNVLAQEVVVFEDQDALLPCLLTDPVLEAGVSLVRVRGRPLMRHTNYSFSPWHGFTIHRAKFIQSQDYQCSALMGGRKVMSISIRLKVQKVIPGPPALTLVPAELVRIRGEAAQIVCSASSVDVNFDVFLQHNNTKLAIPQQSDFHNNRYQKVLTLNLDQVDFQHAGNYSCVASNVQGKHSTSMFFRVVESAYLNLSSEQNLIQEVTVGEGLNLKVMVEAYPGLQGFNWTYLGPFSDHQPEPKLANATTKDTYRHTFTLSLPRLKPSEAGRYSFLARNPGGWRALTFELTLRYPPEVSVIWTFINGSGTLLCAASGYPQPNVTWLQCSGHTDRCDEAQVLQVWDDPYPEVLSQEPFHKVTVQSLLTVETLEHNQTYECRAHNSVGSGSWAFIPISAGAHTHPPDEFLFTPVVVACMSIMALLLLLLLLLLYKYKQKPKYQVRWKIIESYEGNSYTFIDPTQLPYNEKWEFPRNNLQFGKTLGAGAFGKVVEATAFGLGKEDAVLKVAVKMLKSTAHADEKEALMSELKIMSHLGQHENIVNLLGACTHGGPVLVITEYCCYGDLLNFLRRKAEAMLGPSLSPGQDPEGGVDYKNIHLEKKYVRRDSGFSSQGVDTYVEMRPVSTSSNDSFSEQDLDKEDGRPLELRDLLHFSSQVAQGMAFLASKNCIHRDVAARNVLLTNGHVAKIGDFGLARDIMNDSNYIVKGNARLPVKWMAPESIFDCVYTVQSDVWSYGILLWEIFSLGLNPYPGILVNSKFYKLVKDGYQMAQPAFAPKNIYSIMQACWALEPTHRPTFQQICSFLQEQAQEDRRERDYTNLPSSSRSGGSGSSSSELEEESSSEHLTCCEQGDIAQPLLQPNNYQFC

[4] = target: Mast/stem cell growth factor receptor Kit (Homo sapiens, UniProt P10721); format: functional;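 note: KIT entry within a kinase panel assay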
Sequence of Mast/stem cell growth factor receptor Kit (P10721 whole entry): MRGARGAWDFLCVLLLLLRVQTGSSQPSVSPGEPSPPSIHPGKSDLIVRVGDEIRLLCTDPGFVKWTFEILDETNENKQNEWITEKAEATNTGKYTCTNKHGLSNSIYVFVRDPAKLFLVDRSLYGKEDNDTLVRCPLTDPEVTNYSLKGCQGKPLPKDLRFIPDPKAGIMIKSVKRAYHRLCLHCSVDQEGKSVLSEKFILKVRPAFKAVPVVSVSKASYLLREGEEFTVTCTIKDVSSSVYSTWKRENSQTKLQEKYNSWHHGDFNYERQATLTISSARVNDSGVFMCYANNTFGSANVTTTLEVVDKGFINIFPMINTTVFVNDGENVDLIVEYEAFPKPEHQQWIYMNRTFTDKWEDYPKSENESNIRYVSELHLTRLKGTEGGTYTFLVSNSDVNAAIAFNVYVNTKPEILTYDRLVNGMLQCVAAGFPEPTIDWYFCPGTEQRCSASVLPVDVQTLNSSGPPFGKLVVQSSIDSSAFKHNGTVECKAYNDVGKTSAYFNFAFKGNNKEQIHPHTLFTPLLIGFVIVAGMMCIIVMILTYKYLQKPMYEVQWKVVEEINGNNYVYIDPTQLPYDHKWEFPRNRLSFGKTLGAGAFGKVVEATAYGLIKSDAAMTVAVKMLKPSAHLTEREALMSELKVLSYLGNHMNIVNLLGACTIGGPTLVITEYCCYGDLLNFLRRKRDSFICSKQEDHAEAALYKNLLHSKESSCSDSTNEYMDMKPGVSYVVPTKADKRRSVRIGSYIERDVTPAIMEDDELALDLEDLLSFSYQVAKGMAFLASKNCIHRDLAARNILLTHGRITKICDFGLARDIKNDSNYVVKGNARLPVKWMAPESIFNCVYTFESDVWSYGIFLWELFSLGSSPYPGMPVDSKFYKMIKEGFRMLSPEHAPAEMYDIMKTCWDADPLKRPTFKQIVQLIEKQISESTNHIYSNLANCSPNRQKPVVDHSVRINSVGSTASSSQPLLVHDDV

[5] = target: Tyrosine-protein kinase ABL1 (Homo sapiens, UniProt P00519); format: functional
Sequence of Tyrosine-protein kinase ABL1 (P00519 whole entry): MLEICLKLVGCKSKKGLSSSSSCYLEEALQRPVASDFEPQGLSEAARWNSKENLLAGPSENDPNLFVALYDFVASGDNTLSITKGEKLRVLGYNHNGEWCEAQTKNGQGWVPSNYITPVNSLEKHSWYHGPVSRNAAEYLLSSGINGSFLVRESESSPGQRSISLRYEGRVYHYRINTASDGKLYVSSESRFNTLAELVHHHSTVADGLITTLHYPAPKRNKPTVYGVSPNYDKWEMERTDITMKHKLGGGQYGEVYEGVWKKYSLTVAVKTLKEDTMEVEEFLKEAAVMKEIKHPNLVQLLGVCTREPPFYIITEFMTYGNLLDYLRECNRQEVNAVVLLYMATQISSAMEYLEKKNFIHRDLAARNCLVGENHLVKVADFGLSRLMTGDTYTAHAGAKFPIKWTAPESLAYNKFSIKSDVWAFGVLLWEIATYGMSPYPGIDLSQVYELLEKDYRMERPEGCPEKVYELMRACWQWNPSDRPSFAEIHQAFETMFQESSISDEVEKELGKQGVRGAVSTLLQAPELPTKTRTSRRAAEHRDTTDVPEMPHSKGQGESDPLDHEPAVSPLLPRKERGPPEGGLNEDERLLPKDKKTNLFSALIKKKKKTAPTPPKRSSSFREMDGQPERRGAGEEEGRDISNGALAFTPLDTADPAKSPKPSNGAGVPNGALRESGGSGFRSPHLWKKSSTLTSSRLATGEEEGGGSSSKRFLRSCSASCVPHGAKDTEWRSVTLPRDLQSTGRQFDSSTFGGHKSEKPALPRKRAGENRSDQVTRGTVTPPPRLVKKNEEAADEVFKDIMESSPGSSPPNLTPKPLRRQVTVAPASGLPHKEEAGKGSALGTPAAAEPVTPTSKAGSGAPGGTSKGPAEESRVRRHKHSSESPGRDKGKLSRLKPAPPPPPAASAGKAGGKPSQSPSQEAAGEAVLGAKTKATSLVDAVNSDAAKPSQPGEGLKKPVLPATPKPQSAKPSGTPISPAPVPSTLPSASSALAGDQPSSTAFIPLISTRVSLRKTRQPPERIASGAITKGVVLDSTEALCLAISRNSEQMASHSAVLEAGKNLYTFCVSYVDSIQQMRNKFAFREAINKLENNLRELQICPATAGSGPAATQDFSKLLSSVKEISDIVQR

[6] = target: Tyrosine-protein kinase Blk (Homo sapiens, UniProt P51451); format: functional;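 note: obtained as one member of a kinome-wide kinase assay panel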
Sequence of Tyrosine-protein kinase Blk (P51451 whole entry): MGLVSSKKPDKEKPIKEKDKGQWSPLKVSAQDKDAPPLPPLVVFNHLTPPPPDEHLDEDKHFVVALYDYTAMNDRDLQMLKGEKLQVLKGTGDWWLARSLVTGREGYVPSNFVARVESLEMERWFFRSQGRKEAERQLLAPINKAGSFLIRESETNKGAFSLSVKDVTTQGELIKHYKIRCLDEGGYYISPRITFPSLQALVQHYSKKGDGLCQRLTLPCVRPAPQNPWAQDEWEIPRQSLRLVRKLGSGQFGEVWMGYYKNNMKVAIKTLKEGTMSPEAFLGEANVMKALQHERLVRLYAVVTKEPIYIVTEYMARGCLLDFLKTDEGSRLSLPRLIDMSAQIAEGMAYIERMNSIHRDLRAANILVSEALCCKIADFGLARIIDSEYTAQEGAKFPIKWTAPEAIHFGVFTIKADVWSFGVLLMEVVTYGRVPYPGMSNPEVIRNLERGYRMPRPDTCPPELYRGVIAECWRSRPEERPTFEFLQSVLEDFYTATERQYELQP

[7] = test system: HEK293; experiment: HEK293T cell viability loss, resazurin readout – resazurin fluorescence, cytotoxicity control for NF-kB activator project, SAR follow-up (AID 493251); format: functional, cell-based; settings: Homo sapiens
[8] = test system: Jurkat; experiment: SAR Analysis of small molecule inhibitors of […] specific antigen receptor-induced NF-kB activation in a Jurkat cell line using a luminescence assay - Set 3. [Related pubchem assays (depositor defined):AID435022, AID435025, AID465]; format: functional, cell-based; settings: Homo sapiens
[9] = test system: HEK293; experiment: SAR Analysis of small molecule inhibitors of B-cell specific antigen receptor-induced NF-kB activation in a HEK-293T cell line using a luminescence assay - Set 2. [Related pubchem assays (depositor defined):AID435022, AID435025, AID489021]; format: functional, cell-based; settings: Homo sapiens
[10] = target: T1, Sentrin-specific protease 7 (Homo sapiens, UniProt Q9BQF6); experiment: inhibition of human SENP7 cleavage activity – biochemical, luminescence, set 2, SAR follow-up (AID 588600); format: functional
T1 sequence (Q9BQF6 whole entry): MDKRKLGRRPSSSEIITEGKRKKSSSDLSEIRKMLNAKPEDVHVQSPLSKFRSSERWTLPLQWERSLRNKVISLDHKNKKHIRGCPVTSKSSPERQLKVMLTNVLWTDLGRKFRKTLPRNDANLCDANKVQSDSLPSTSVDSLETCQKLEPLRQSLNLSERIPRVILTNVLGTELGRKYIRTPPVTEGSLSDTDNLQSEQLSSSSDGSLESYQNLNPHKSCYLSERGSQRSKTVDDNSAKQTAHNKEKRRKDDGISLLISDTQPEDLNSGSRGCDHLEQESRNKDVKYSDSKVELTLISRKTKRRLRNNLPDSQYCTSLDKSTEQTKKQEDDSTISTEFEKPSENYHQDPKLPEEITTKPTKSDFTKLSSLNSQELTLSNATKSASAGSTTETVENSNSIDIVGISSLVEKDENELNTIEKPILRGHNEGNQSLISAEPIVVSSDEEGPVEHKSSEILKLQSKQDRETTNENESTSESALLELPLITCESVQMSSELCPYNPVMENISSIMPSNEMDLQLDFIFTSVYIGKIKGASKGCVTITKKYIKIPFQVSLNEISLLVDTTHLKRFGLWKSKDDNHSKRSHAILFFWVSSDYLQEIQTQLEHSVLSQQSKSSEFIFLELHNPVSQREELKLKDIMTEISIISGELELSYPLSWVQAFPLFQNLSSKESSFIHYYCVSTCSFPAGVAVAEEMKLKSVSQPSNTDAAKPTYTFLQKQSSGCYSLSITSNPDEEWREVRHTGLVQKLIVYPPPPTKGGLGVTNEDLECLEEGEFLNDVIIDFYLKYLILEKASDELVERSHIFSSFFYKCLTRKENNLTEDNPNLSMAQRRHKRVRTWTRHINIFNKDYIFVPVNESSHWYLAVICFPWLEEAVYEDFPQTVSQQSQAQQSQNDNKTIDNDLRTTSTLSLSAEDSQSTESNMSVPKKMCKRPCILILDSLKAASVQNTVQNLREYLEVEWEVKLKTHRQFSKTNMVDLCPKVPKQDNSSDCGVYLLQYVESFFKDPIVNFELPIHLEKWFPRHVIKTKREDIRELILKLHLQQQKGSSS

[11] = target: T2, Caspase-3 (Homo sapiens, UniProt P42574); experiment: inhibition of recombinant caspase-3 activity – biochemical, luminescence, set 2, selectivity assay for SENP protease inhibitor project, SAR follow-up (AID 588599); format: functional
T2 sequence (P42574 whole entry): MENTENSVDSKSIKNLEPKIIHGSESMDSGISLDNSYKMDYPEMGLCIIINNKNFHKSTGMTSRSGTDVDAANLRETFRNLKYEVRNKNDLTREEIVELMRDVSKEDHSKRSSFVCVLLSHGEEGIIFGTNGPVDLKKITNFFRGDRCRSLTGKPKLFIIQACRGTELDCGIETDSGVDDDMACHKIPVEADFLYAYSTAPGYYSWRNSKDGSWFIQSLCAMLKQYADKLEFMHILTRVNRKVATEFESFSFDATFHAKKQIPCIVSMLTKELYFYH

[12] = target: T2, Caspase-3; experiment: SAR Analysis of small molecule inhibitors of Sentrin-specific proteases (SENPs) using a Caspase-3 Selectivity assay. [Related pubchem assays (depositor defined):AID2540, AID2599, AID434973, AID489001]; format: functional
[13] = target: T3, Sentrin-specific protease 8 (Homo sapiens, UniProt Q96LD8); experiment: inhibition of sentrin protease 8 – biochemical, luminescence, set 2, SAR follow-up (AID 588601); format: functional
T3 sequence (Q96LD8 whole entry): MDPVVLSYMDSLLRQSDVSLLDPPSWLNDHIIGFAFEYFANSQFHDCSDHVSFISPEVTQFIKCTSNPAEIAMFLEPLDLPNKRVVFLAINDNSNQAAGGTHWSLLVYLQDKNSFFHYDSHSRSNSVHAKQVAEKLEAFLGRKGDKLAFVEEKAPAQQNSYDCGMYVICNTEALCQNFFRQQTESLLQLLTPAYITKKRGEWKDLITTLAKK

[14] = target: T4, Sentrin-specific protease 6 (Homo sapiens, UniProt Q9GZR1); experiment: SAR Analysis of small molecule inhibitors of Sentrin-specific protease 6 (SENP6) using a Luminescent assay. [Related pubchem assays (depositor defined):AID2582, AID2599]; format: functional
T4 sequence (Q9GZR1 whole entry): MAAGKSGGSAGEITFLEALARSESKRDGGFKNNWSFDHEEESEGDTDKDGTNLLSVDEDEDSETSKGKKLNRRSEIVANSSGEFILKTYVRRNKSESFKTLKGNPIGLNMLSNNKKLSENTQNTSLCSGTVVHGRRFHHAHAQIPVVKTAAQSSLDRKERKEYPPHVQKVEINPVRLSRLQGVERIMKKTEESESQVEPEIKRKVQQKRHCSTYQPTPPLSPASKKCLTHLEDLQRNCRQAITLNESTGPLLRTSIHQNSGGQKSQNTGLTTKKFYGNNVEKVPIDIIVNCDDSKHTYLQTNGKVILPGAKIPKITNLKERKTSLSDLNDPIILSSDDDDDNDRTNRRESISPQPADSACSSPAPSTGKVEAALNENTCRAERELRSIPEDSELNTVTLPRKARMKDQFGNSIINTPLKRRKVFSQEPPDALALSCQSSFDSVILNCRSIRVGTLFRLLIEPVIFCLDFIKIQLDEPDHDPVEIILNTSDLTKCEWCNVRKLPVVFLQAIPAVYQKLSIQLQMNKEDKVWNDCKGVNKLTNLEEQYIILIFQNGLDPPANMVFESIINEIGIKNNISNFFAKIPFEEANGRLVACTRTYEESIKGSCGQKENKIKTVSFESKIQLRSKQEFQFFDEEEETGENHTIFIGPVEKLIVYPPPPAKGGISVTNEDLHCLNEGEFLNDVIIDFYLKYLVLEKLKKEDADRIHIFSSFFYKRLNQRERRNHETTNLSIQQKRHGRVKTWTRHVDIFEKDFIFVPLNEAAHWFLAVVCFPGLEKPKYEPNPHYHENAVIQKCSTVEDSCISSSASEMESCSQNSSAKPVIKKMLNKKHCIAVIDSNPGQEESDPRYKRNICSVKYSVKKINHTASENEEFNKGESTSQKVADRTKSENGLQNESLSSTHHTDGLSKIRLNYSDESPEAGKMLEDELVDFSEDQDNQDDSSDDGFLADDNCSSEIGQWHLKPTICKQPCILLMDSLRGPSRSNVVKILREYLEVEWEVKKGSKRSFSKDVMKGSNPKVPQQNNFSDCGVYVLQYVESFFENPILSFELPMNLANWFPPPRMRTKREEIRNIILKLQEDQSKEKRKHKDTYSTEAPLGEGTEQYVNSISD

[15] = target: T3, Sentrin-specific protease 8; experiment: inhibition of human SENP8 cleavage activity – biochemical, luminescence, SAR follow-up (AID 504501); format: functional
[16] = target: T4, Sentrin-specific protease 6; experiment: inhibition of human SENP6 catalytic domain – biochemical, luminescence, set 2, SAR follow-up (AID 588598); format: functional
[17] = target: T1, Sentrin-specific protease 7; experiment: inhibition of human SENP7 cleavage activity – biochemical, luminescence, SAR follow-up (AID 504497); format: functional

Sequence of DNA dC->dU-editing enzyme APOBEC-3A (P31941 whole entry): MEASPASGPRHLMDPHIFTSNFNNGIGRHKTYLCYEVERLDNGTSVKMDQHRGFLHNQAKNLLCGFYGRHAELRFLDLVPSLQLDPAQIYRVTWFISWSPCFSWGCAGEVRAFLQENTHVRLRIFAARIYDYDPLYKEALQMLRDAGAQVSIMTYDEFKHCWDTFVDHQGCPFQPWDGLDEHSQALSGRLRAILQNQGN

Cc1ccc(N2C(=O)C(=O)N(CC(=O)c3ccc[nH]3)C2=O)c(C)c1
IC50 [1]: > 99000 nM (inactive)
IC50 [2]: > 99000 nM (inactive)

Cc1cc(C)cc(NC(=O)Nc2ccc(-c3ccnc4c3c(N)nn4C)cc2)c1
Ki [3]: 2 nM (active)
Ki [4]: 1 nM (active)
Ki [5]: > 631 nM (inactive)
Ki [6]: 794 nM (active)

CCOc1ccc(-c2nc(CSCC(=O)NC(C)C)c(C)o2)cc1
IC50 [7]: > 80000 nM (inactive)
IC50 [8]: > 80000 nM (inactive)
IC50 [9]: 61700 nM (inactive)

Fc1ccc(/C=C/c2nc(-c3ccccc3)no2)cc1
IC50 [10]: 2090 nM (active)
IC50 [11]: 3020 nM (active)
IC50 [12]: 5000 nM (active)
IC50 [13]: 1810 nM (active)
IC50 [14]: 2100 nM (active)
IC50 [15]: 16000 nM (active)
IC50 [16]: 1830 nM (active)
IC50 [17]: 1700 nM (active)
